Values quoted from earlier work in patent publication US20110008428A1, “SOLID PHARMACEUTICAL COMPOSITION COMPRISING A NON-PEPTIDE ANGIOTENSIN II RECEPTOR ANTAGONIST AND A DIURETIC” (ratiopharm GmbH, priority 2008, published 2011).

Details: free acid form; physiological pH range of the gastro-intestinal tract, between pH 1-7

solubility in aqueous systems: very poor
Compound: CCCc1nc2c(C)cc(-c3nc4ccccc4n3C)cc2n1Cc1ccc(-c2ccccc2C(=O)O)cc1 [Telmisartan, 4′-[(1,4′-dimethyl-2′-n-propyl-[2,6′-bi-1H-benzimidazol]-1′-yl)methyl]-[1,1′-biphenyl]-2-carboxylic acid]
